One data set has as its target T1, P2X7 receptor (Homo sapiens, UniProt Q99572).
T1 construct: 200 μl of a suspension of THP-1 cells; endogenous in cells; host or cells: THP-1 cells
T1 sequence (Q99572 1-595): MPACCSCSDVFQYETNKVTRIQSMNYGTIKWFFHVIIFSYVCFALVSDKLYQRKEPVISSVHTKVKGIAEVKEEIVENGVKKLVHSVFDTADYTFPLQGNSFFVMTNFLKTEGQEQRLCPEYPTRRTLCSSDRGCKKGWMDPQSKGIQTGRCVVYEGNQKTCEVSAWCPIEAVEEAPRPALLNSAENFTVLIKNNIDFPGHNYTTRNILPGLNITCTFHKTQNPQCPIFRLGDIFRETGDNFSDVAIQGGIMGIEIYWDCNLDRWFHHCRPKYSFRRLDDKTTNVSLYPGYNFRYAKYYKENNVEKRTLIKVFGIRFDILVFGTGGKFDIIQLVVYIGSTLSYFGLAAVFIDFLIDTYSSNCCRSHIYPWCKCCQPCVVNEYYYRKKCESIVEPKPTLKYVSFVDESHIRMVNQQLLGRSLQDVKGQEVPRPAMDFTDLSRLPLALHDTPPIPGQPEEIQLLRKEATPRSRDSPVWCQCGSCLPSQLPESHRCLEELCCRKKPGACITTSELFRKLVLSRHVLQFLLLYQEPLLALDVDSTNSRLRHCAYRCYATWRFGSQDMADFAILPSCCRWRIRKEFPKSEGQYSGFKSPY
Kind of data set: P2X7 receptor antagonist activity: bbATP-induced ethidium bromide fluorescence in THP-1 cells. The class given is cell-based. The procedure: Consequently, when the receptor is activated using bbATP in the presence of ethidium bromide (a fluorescent DNA probe), an increase in the fluorescence of intracellular DNA-bound ethidium bromide is observed. The increase in fluorescence can be used as a measure of P2X7 receptor activation and therefore to quantify the effect of a compound on the P2X7 receptor.
In this manner, each of the title compounds of the Examples was tested for antagonist activity at the P2X7 receptor. Thus, the test was performed in 96-well flat bottomed microtitre plates, the wells being filled with 250 μl of test solution comprising 200 μl of a suspension of THP-1 cells (2.5×10^6 cells/ml) containing 10^−4M ethidium bromide, 25 μl of a high potassium buffer solution containing 10^−5M bbATP, and 25 μl of the high potassium buffer solution containing 3×10^−5M test compound. The plate was covered with a plastics sheet and incubated at 37° C. for one hour. […] For the purposes of comparison, bbATP (a P2X7 receptor agonist) and pyridoxal 5-phosphate (a P2X7 receptor antagonist) were used separately in the test as controls.

The mark [1] stands for this setting: THP-1 cells, negative logarithm of concentration reducing bbATP agonist activity by 50%, ethidium bromide fluorescence, 37° C., one hour, read-out: pIC50 (converted).

Each structure is given as a SMILES string. Structures can show the parent of a compound that is named as a salt. Where two headings read alike, the source gives them in different places.

By melting point is commonly meant the temperature of the solid-liquid transition.

Take `O=C(NCC1CCCCC1)c1c(Cl)ccc2ncccc12` [Example 42, 6-Chloro-N-(cyclohexylmethyl)quinoline-5-carboxamide]: the IC50 on P2X7 receptor (setting [1]) is 316 nM.

Consider `O=C(CC1CCCCC1)Nc1c(Cl)ccc2nc(NCCNCCO)ccc12` [Example 17, N-[6-Chloro-2-[[2-[(2-hydroxyethyl)amino]ethyl]amino]-5-quinolinyl]-cyclohexaneacetamide, Dihydrochloride], for which the IC50 at P2X7 receptor (setting [1]) was 25.1 nM.

Consider `O=C(CC1CCCCC1)Nc1c(Cl)ccc2nc(NCCCO)ccc12` [Example 5, N-[6-Chloro-2-[(3-hydroxypropyl)amino]-5-quinolinyl]-cyclohexaneacetamide, Hydrochloride], for which the IC50 at P2X7 receptor (setting [1]) was 126 nM.

`O=C(CC1CCCCC1)Nc1c(Cl)ccc2nc(N3CCC(c4noc(=O)[nH]4)CC3)ccc12` [Example 102, N-[6-Chloro-2-[4-(4,5-dihydro-5-oxo-1,2,4-oxadiazol-3-yl)-1-piperidinyl]-5-quinolinyl]-cyclohexaneacetamide] gave a melting point of 233 to 235 °C. The IC50 at P2X7 receptor (setting [1]) is 200 nM.

With `O=C(CC1CCCCC1)Nc1c(Cl)ccc2nc(N3CCC[C@@H](O)C3)ccc12` [Example 37, N-[6-Chloro-2-[(3R)-3-hydroxy-1-piperidinyl]-5-quinolinyl]-cyclohexaneacetamide], the melting point was 209 to 214 °C. Besides, on P2X7 receptor (setting [1]), the IC50 is 50.1 nM.

For the compound `O=C(O)CN1CCN(c2ccc3c(C(=O)NCC4CCCCC4)c(Cl)ccc3n2)CC1` [Example 73, 4-[6-Chloro-5-[[(cyclohexylmethyl)amino]carbonyl]-2-quinolinyl]-1-piperazineacetic acid, Acetate], the IC50 on P2X7 receptor (setting [1]) is 398 nM.

For `CN[C@@H]1CCN(c2ccc3c(NC(=O)CC4CCCCC4)c(Cl)ccc3n2)C1` [Example 33, N-[6-Chloro-2-[(3R)-3-(methylamino)-1-pyrrolidinyl]-5-quinolinyl]-cyclohexaneacetamide], the melting point came to 169 °C. Also, on P2X7 receptor (setting [1]), the IC50 is 25.1 nM.

`CS(=O)(=O)NC(=O)NCCCc1ccc2c(NC(=O)CC3CCCCC3)c(Cl)ccc2n1` [Example 24, N-[6-Chloro-2-[3-[[[(methylsulfonyl)amino]carbonyl]amino]propyl]-5-quinolinyl]-cyclohexaneacetamide] yielded a melting point of 151 to 152 °C. Further, at P2X7 receptor, the IC50 was 501 nM.

Consider `O=C1CN([C@H]2CCN(c3ccc4c(C(=O)NCC5CCCCC5)c(Cl)ccc4n3)C2)S(=O)(=O)N1` [Example 112, 6-Chloro-N-(cyclohexylmethyl)-2-[(3S)-3-(1,1-dioxido-4-oxo-1,2,5-thiadiazolidin-2-yl)-1-pyrrolidinyl]-5-quinolinecarboxamide], for which the IC50 on P2X7 receptor (setting [1]) was 316 nM.

As for `O=C(CC1CCCCC1)Nc1c(Cl)ccc2nc(N3CC[C@@H](O)C3)ccc12` [Example 28, N-[6-Chloro-2-[(3R)-3-hydroxy-1-pyrrolidinyl]-5-quinolinyl]-cyclohexaneacetamide], the melting point lay within 226 to 227 °C. Moreover, the IC50 on P2X7 receptor (setting [1]) was 39.8 nM.

As to `CC1CCC(CC(=O)Nc2cccc3ncccc23)CC1` (stereo not shown) [Example 20, 4-Methyl-N-5-quinolinyl-cyclohexaneacetamide], the IC50 at P2X7 receptor (setting [1]) is 126 nM.
